Experimental data as given in patent publication US4513001A, “β-Adrenergic 1-[1-benzimidazolyl]-N-[2-(4-hydroxy-3-methoxy-phenyl)-2-hydroxy-ethyl]- 3-amino butane and salts and hydrates thereof” (priority 1982, dated 1985).
“Also recorded” adds a separate entry of the source. Where two headings read alike, the source gives them in different places.

Columns and labels:
[1] = tested on: isolated trachea preparation of the guinea pig; experiment: Relaxant activity on isolated tracheal muscle in vitro
Description: This activity was studied on an isolated trachea preparation of the guinea pig (chain of tracheal rings, according to CASTILLO and BEER. Journ. Pharmacol. Exp. Ther. 1947 90 104-109), kept alive in a KREBS solution. The effect of cumulative doses on the pressure of the preparation was recorded.
The activity of the substance was expressed by the value of the molar CD50 (decontracting concentration 50=concentration giving 50% of maximum relaxation), of which the negative log. is the value pD2, and by the intrinsic activity corresponding to maximum effect.
These values were determined in parallel for the compound A and Salbutamol, on 6 preparations for each.

[2] = tested on: heart rate and mean aortic pressure; experiment: Heart rate and mean aortic pressure of the anesthetised dog, intraduodenal; assay type: in vivo; details: for Heart rate, maximum cumulative effect / Average aortic pressure, maximum cumulative effect: intraduodenal
Description: 3.1.1. Activity on the heart rate and on the mean aortic pressure of the anesthetisied dog
The activity of the compound A and of Salbutamol was studied on 2 batches of 3 dogs per product: one in spontaneous respiration, the other in artificial respiration; the two substances were administered intraduodenally at 3 doses: 0.008-0.025 and 0.08 mg/kg.

guinea pig trachea = experiment: β-stimulant specificity: guinea pig trachea before and after propranolol; details: for EC50: Cavia porcellus, 6 preparations
Source text: respiratory (guinea pig trachea, in vitro)
cardiovascular (heart rate of the dog, in vivo) by the antagonistic effect of a β-blocking product.

histamine bronchospasm [3] = experiment: Bronchodilator activity in vivo, anesthetized guinea pig, intraduodenal (inhibition of histamine bronchospasm, KONZETT)
Description: (§1) 1.2.1 In the anesthesized guinea pig (method of KONZETT. Arch. Exp. Pathol. Pharmakol. 1940 195 71-74)
(§2) A bronchospasm was caused by intravenous histamine injection. The bronchodilator activity was shown by partial or total inhibition of this spasm.
The product studied was administered intravenously or intraduodenaly and histamine injected then at different times to follow the delay in appearance and the duration of the inhibiting effect of the treatment.
The results below are the averages of the values obtained in 10 animals.

rat uterus preparation = experiment: Uterus relaxing activity in vitro; details: for EC50: Rattus norvegicus, 7 preparations, read-out: CE50 (effective concentration 50, inhibiting by 50% the control contraction)
Source text: This activity was investigated on a rat uterus preparation, put into estrus by cutaneous injection of oestradiol benzoate. The uterine horns were kept alive in a RINGER-LOCKE solution, modified by GADDUM and VOGT.
Their activity is expressed by the value of the molar CE50 (effective concentration 50, inhibiting by 50% the control contraction induced by the contracting agent).
Each CE50 indicated below was obtained from the results of 7 preparations.

histamine bronchospasm [4] = experiment: Bronchodilator activity in vivo, anesthetized guinea pig, intravenous (inhibition of histamine bronchospasm, KONZETT); details: for % inhibition in time: i.v.
Description: as §1, §2
The product studied was administered intravenously or intraduodenaly and histamine injected then at different times to follow the delay in appearance and the duration of the inhibiting effect of the treatment. […]

histamine bronchospasm [5] = experiment: Bronchodilator activity in vivo, anesthetized dog, intraduodenal (intratracheal pressure, histamine bronchospasm)
Description: 1.2.2. In the anesthesized dog (recording of the intratracheal pressure)
A bronchospasm was caused by intravenous injection and histamine. The bronchodilator activity was shown by partial or total inhibition of this spasm.
The products studied were administered intraduodenally and the histamine injected then at various times to follow the effect of the treatment.
The results borne in the table below are the averages of the values obtained in 3 animals for each product.

[6] = tested on: isolated right atrium preparation of the guinea pig; experiment: Activity on the heart rate in vitro, isolated right atrium; details: for Heart rate, maximum: basal 209 (Compound A), 202 (Salbutamol); for Tachycardiac activity in vitro (comparison with Salbutamol): sulphate, dihydrate
Description: This action was studied on an isolated right atrium preparation of the guinea pig kept alive in a RINGER solution. The effect of cumulative doses on the heart rate was recorded. The results below are the averages of 6 preparations of the compound A, of 4 for Salbutamol

Compound: COc1cc(C(O)CNC(C)CCn2cnc3ccccc32)ccc1O (centres unmarked) [Compound A, 1-[1-benzimidazolyl]-N-[2-(4-hydroxy-3-methoxy-phenyl)2-hydroxy-ethyl]3-amino butane basic sulphate, dihydrate]
- Maximum response (decontraction) ([1]; 6 preparations): 390 mg
- Emax ([1]; Cavia porcellus, 6 preparations, Salbutamol 1.00, read-out: Intrinsic activity): 109%
- EC50 ([1]; Cavia porcellus, 6 preparations, read-out: CD50 (decontracting concentration 50, concentration giving 50% of maximum relaxation)): 71 nM
- EC50 ([1]; Cavia porcellus, negative log of molar CD50, 6 preparations, read-out: pD2 (converted)): 70.8 nM
- Activity on the tracheal muscle (comparison with Salbutamol) ([1]; in vitro, in words): very close to that of Salbutamol
- Tachycardiac and hypotensive effect (comparison with Salbutamol) ([2]; anesthetised dog, in words): a little less tachycardiac and hypotensive than Salbutamol
- Heart rate, maximum cumulative effect ([2]; artificial respiration, 10 min after 0.08 mg/kg): +20 cpm
- Average aortic pressure, maximum cumulative effect ([2]; artificial respiration, 75 min after 0.08 mg/kg): -26 mmHg
- Heart rate, maximum cumulative effect ([2]; spontaneous respiration, 15 min after 0.08 mg/kg): +17 cpm
- Average aortic pressure, maximum cumulative effect ([2]; spontaneous respiration, 20 min after 0.08 mg/kg): -15 mmHg
- EC50 (guinea pig trachea; read-out: CD50 before propranolol): 71 nM
- EC50 (guinea pig trachea; propranolol 1.7×10^-8 mol, read-out: CD50 after propranolol): 250 nM
- Ratio of CD50 (guinea pig trachea; after / before propranolol): 3.5
- % inhibition in time (histamine bronchospasm [3]; 0.25 mg base/kg, 1 min): 11%
- % inhibition in time (histamine bronchospasm [3]; 0.25 mg base/kg, 5 min): 27%
- % inhibition in time (histamine bronchospasm [3]; 0.25 mg base/kg, 15 min): 26%
- % inhibition in time (histamine bronchospasm [3]; 0.25 mg base/kg, 30 min): 26%
- % inhibition in time (histamine bronchospasm [3]; 0.25 mg base/kg, 45 min): 19%
- % inhibition in time (histamine bronchospasm [3]; 0.25 mg base/kg, 60 min): 13%
- % inhibition in time (histamine bronchospasm [3]; 0.25 mg base/kg, 90 min): 9%
- % inhibition in time (histamine bronchospasm [3]; 0.8 mg base/kg, 1 min): 16%
- % inhibition in time (histamine bronchospasm [3]; 0.8 mg base/kg, 5 min): 60%
- % inhibition in time (histamine bronchospasm [3]; 0.8 mg base/kg, 15 min): 61%
- % inhibition in time (histamine bronchospasm [3]; 0.8 mg base/kg, 30 min): 44%
- % inhibition in time (histamine bronchospasm [3]; 0.8 mg base/kg, 45 min): 29%
- % inhibition in time (histamine bronchospasm [3]; 0.8 mg base/kg, 60 min): 23%
- % inhibition in time (histamine bronchospasm [3]; 0.8 mg base/kg, 90 min): 21%
- % inhibition in time (histamine bronchospasm [3]; 2.5 mg base/kg, 1 min): 20%
- % inhibition in time (histamine bronchospasm [3]; 2.5 mg base/kg, 5 min): 73%
- % inhibition in time (histamine bronchospasm [3]; 2.5 mg base/kg, 15 min): 65%
- % inhibition in time (histamine bronchospasm [3]; 2.5 mg base/kg, 30 min): 53%
- % inhibition in time (histamine bronchospasm [3]; 2.5 mg base/kg, 45 min): 44%
- % inhibition in time (histamine bronchospasm [3]; 2.5 mg base/kg, 60 min): 39%
- % inhibition in time (histamine bronchospasm [3]; 2.5 mg base/kg, 90 min): 34%
- % inhibition in time (histamine bronchospasm [3]; 2.5 mg base/kg, 120 min): 30%
- % inhibition in time (histamine bronchospasm [3]; 8 mg base/kg, 1 min): 51%
- % inhibition in time (histamine bronchospasm [3]; 8 mg base/kg, 5 min): 82%
- % inhibition in time (histamine bronchospasm [3]; 8 mg base/kg, 15 min): 82%
- % inhibition in time (histamine bronchospasm [3]; 8 mg base/kg, 30 min): 71%
- % inhibition in time (histamine bronchospasm [3]; 8 mg base/kg, 45 min): 67%
- % inhibition in time (histamine bronchospasm [3]; 8 mg base/kg, 60 min): 65%
- % inhibition in time (histamine bronchospasm [3]; 8 mg base/kg, 90 min): 59%
- % inhibition in time (histamine bronchospasm [3]; 8 mg base/kg, 120 min (n = 9 compound A, n = 8 Salbutamol)): 55%
- minimal effective dose (histamine bronchospasm [3]; Cavia porcellus, read-out: Threshold active dose): 0.25 mg/kg
- Bronchodilator activity (comparison, in words) (histamine bronchospasm [3]; sulphate, dihydrate): more lasting at 8 mg/kg; also recorded: more active than Salbutamol
- EC50 (rat uterus preparation; contracting agent acetylcholine): 0.67 nM
- EC50 (rat uterus preparation; contracting agent serotonine): 2.4 nM
- Activity on the uterus (comparison with Salbutamol) (rat uterus preparation; in vitro, in words): of the same order of that of Salbutamol
- % inhibition in time (histamine bronchospasm [4]; 0.08 μg base/kg, 1 min): 1%
- % inhibition in time (histamine bronchospasm [4]; 0.08 μg base/kg, 5 min): 1%
- % inhibition in time (histamine bronchospasm [4]; 0.08 μg base/kg, 10 min): 0%
- % inhibition in time (histamine bronchospasm [4]; 0.08 μg base/kg, 15 min): 0%
- % inhibition in time (histamine bronchospasm [4]; 0.25 μg base/kg, 1 min): 9%
- % inhibition in time (histamine bronchospasm [4]; 0.25 μg base/kg, 5 min): 1%
- % inhibition in time (histamine bronchospasm [4]; 0.25 μg base/kg, 10 min): 0%
- % inhibition in time (histamine bronchospasm [4]; 0.25 μg base/kg, 15 min): 0%
- % inhibition in time (histamine bronchospasm [4]; 0.8 μg base/kg, 1 min): 36%
- % inhibition in time (histamine bronchospasm [4]; 0.8 μg base/kg, 5 min): 3%
- % inhibition in time (histamine bronchospasm [4]; 0.8 μg base/kg, 10 min): 2%
- % inhibition in time (histamine bronchospasm [4]; 0.8 μg base/kg, 15 min): 3%
- % inhibition in time (histamine bronchospasm [4]; 2.5 μg base/kg, 1 min): 66%
- % inhibition in time (histamine bronchospasm [4]; 2.5 μg base/kg, 5 min): 13%
- % inhibition in time (histamine bronchospasm [4]; 2.5 μg base/kg, 10 min): 8%
- % inhibition in time (histamine bronchospasm [4]; 2.5 μg base/kg, 15 min): 8%
- % inhibition in time (histamine bronchospasm [4]; 8 μg base/kg, 1 min): 73%
- % inhibition in time (histamine bronchospasm [4]; 8 μg base/kg, 5 min): 17%
- % inhibition in time (histamine bronchospasm [4]; 8 μg base/kg, 10 min): 12%
- % inhibition in time (histamine bronchospasm [4]; 8 μg base/kg, 15 min): 8%
- % inhibition in time (histamine bronchospasm [4]; 25 μg base/kg, 1 min): 92%
- % inhibition in time (histamine bronchospasm [4]; 25 μg base/kg, 5 min): 52%
- % inhibition in time (histamine bronchospasm [4]; 25 μg base/kg, 10 min): 38%
- % inhibition in time (histamine bronchospasm [4]; 25 μg base/kg, 15 min): 28%
- % inhibition in time (histamine bronchospasm [4]; 84 μg base/kg, 1 min): 92%
- % inhibition in time (histamine bronchospasm [4]; 84 μg base/kg, 5 min): 80%
- % inhibition in time (histamine bronchospasm [4]; 84 μg base/kg, 10 min): 70%
- % inhibition in time (histamine bronchospasm [4]; 84 μg base/kg, 15 min): 63%
- % inhibition in time (histamine bronchospasm [4]; 84 μg base/kg, 30 min): 51%
- % inhibition in time (histamine bronchospasm [4]; 84 μg base/kg, 45 min): 36%
- % inhibition in time (histamine bronchospasm [4]; 84 μg base/kg, 60 min): 21%
- Bronchodilator activity (comparison with Salbutamol) (histamine bronchospasm [4]; intravenous, in words): activity of the same order, although very slightly less for compound A at low doses; at the highest dose, the effect is intense and lasting, the compound A had an activity at least equal to that of Salbutamol
- % inhibition in time (histamine bronchospasm [5]; 0.025 mg base/kg, 5 min): 48%
- % inhibition in time (histamine bronchospasm [5]; 0.025 mg base/kg, 20 min): 60%
- % inhibition in time (histamine bronchospasm [5]; 0.025 mg base/kg, 35 min): 67%
- % inhibition in time (histamine bronchospasm [5]; 0.025 mg base/kg, 60 min): 63%
- % inhibition in time (histamine bronchospasm [5]; 0.025 mg base/kg, 90 min): 62%
- % inhibition in time (histamine bronchospasm [5]; 0.08 mg base/kg, 5 min): 70%
- % inhibition in time (histamine bronchospasm [5]; 0.08 mg base/kg, 20 min): 78%
- % inhibition in time (histamine bronchospasm [5]; 0.08 mg base/kg, 35 min): 76%
- % inhibition in time (histamine bronchospasm [5]; 0.08 mg base/kg, 60 min): 70%
- % inhibition in time (histamine bronchospasm [5]; 0.08 mg base/kg, 90 min): 60%
- Bronchodilator activity (comparison, in words) (histamine bronchospasm [5]; sulphate, dihydrate): acted more rapidly (inhibition already strong in 5 minutes); also recorded: activity was higher than or equal to that of Salbutamol, is characterised by its great speed of action
- Heart rate, increase ([6]; 1 × 10^-5 mol (maxi for Salbutamol)): +47 beats per min.
- Heart rate, maximum ([6]; 1 × 10^-5 mol): 256 beats per min.
- Heart rate, increase ([6]; 1 × 10^-6 mol (maxi for Compound A)): +49 beats per min.
- Heart rate, maximum ([6]; 1 × 10^-6 mol): 258 beats per min.
- Heart rate, increase ([6]; 1 × 10^-7 mol): +40 beats per min.
- Heart rate, maximum ([6]; 1 × 10^-7 mol): 249 beats per min.
- Emax ([6]; Cavia porcellus, same preparation, at the start of the test, read-out: Maximum as % of the maximum tachycardia obtained with isoprenaline): < 50%
- CE50 and pD2 on heart rate (not calculable) ([6]; in vitro, in words): this low activity prevents calculation of a CE50 and a pD2
- Tachycardiac activity in vitro (comparison with Salbutamol) ([6]; in words, listed as Compound a): only a partial effect, very much less than that of Salbutamol
- Tachycardiac activity in vitro (comparison with Salbutamol) ([6]; in words): increases the rate but the maximum effect is very much less than that of Salbutamol
